Test results reported in patent publication US20140315857A1, “N- (4 -QUINOLINYLMETHYL) SULFONAMIDE DERIVATIVES AND THEIR USE AS ANTHELMINTICS” (E I DU PONT DE NEMOURS AND COMPANY, priority 2011, published 2014).
Values belong to the molecule of their own block, whether it stands above or below them.

How the values were obtained:
Haemonchus contortus [1] = assay: Test A: control of barber pole worm, eggs in culture media, mortality at L3 stage; assay type: cell-based; conditions: 120 h
Experimental: For evaluating control of the barber pole worm (Haemonchus contortus), a test compound was solubilized in culture media (Earle's Balanced Salt Solution) containing Haemonchus contortus eggs to obtain a final test compound concentration of 2.0 ppm. The test unit was evaluated for mortality 120 hours later after which the eggs had hatched and had advanced to the L3 stage.

Haemonchus contortus [2] = assay: Test B: Haemonchus contortus burdens in infected mice after oral gavage; assay type: in vivo; conditions: oral gavage 10.0 mg/kg body weight on day 0, Haemonchus contortus burdens on day 5 relative to vehicle-dosed controls
Experimental: For evaluating control of the barber pole worm (Haemonchus contortus), mice were each infected orally with 600 L3 Haemonchus contortus larvae on Day −3. On day 0, the infected mice were gavaged with a test compound (n=1) in a propylene glycol/glycerol formal solution at the rate of 10.0 mg/kg body weight. On day 5, the mice were euthanized and evaluated for Haemonchus contortus burdens relative to the vehicle-dosed controls. The range of means for the number of Haemonchus contortus in the various tests in which these compounds were studied was 92-184.

SMILES: O=S(=O)(NCc1ccnc2ccccc12)c1ccc(C#CC2CC2)cc1 [Compound 2, 4-(2-cyclopropylethynyl)-N-(4-quinolinylmethyl)benzenesulfonamide]
mortality at 2 ppm (Haemonchus contortus [1]): 100%
% Efficacy (Haemonchus contortus [2]): 60%

melting point: 193 to 195 °C
SMILES: O=S(=O)(NCc1ccnc2ncccc12)c1ccc(C#CC2CC2)cc1 [Compound 48, 4-(2-cyclopropylethynyl)-N-(1,8-naphthyridin-4-ylmethyl)-benzenesulfonamide]

SMILES: O=S(=O)(NCc1ccnc2ccccc12)c1ccc(C#Cc2ccccn2)cc1 [Compound 4, 4-[2-(2-pyridinyl)ethynyl]-N-(4-quinolinylmethyl)benzenesulfonamide]
mortality at 2 ppm (Haemonchus contortus [1]): 100%
% Efficacy (Haemonchus contortus [2]): 89%

SMILES: O=S(=O)(NCc1ccnc2ccccc12)c1ccc(C#CC2CC2)s1 [Compound 15, 5-(2-cyclopropylethynyl)-N-(4-quinolinylmethyl)-2-thiophenesulfonamide]
mortality at 2 ppm (Haemonchus contortus [1]): 100%
% Efficacy (Haemonchus contortus [2]): 93%
